Where a name gives a salt, the structure may show the parent alone. Read-outs that look alike come from different tables or passages of the source.
Experiments:
[1] = molecular target: T1, SARS-CoV-2 PLpro (nsp3 1564–1878) (Severe acute respiratory syndrome coronavirus 2, UniProt P0DTD1); assay: biochemical; parameters: FRET-quenched peptide (Pro3) cleavage by PLpro, 10 min pre-incubation, slope over 20 min, normalised to no-compound control; conditions: low concentration screen, read-out: % of control remaining
[2] = molecular target: T1, SARS-CoV-2 PLpro (nsp3 1564–1878); assay: biochemical; parameters: FRET-quenched peptide (Pro3) cleavage by PLpro, 10 min pre-incubation, slope over 20 min, normalised to no-compound control; conditions: high concentration screen, read-out: % of control remaining

## NCC[C@H](O)C(=O)N[C@@H]1C[C@H](N)[C@@H](O[C@H]2O[C@H](CN)[C@@H](O)[C@H](O)[C@H]2O)[C@H](O)[C@H]1O[C@H]1O[C@H](CO)[C@@H](O)[C@H](N)[C@H]1O [Amikacin hydrate]
[1]; Well no.=5355
  remaining activity at 1.25 µM: 97.3%
[2]; Well no.=5355
  remaining activity at 3.75 µM: 101%

## Cc1cccc(C#Cc2ccccc2)n1 [6-Methyl-2-(phenylethynyl)pyridine hydrochloride]
[1]; Well no.=834
  remaining activity at 1.25 µM: 98.2%
[2]; Well no.=834
  remaining activity at 3.75 µM: 95%

## CN(C)C/C=C(/c1ccc(Br)cc1)c1cccnc1 [Zimelidine dihydrochloride]
[1]; Well no.=1534
  remaining activity at 1.25 µM: 96.1%
[2]; Well no.=1534
  remaining activity at 3.75 µM: 96%

## O=C1c2ccccc2-[n+]2ccc3c([nH]c4ccccc43)c21 [Fascaplysin, Synthetic]
[1]; Well no.=2458
  remaining activity at 1.25 µM: 89%
[2]; Well no.=2458
  remaining activity at 3.75 µM: 82.7%

## Nc1nc(=O)[nH]cc1F [Flucytosine (Ancobon)]
[1]; Well no.=5335
  remaining activity at 1.25 µM: 94.7%
[2]; Well no.=5335
  remaining activity at 3.75 µM: 101%

## CCN(CC)CCCCNc1ncc2cc(-c3c(Cl)cccc3Cl)c(NC(=O)NC(C)(C)C)nc2n1 [PD-161570]
[1]; Well no.=5413
  remaining activity at 1.25 µM: 99.1%
[2]; Well no.=5413
  remaining activity at 3.75 µM: 97.7%

## CCCCC/C=C\C/C=C\C/C=C\C/C=C\CCCC(=O)NCCO [Anandamide (20:4, n-6)]
[1]; Well no.=4290
  remaining activity at 1.25 µM: 99.3%
[2]; Well no.=4290
  remaining activity at 3.75 µM: 93%

## N#CN=C(NCCCCCCOc1ccc(Cl)cc1)Nc1ccncc1 [GMX1778 (CHS828)]
[1]; Well no.=8486
  remaining activity at 1.25 µM: 93.1%
[2]; Well no.=8486
  remaining activity at 3.75 µM: 95.9%

## NC(=O)c1[nH]cnc1N [5-Amino-3H-imidazole-4-Carboxamide]
[1]; Well no.=7449
  remaining activity at 1.25 µM: 103%
[2]; Well no.=7449
  remaining activity at 3.75 µM: 104%

## CC(=O)N[C@@H](Cc1ccc(O)cc1)C(=O)O [N-Acetyl-L-tyrosine]
[1]; Well no.=6677
  remaining activity at 1.25 µM: 105%
[1]; Well no.=8704
  remaining activity at 1.25 µM: 101%
[2]; Well no.=6677
  remaining activity at 3.75 µM: 104%
[2]; Well no.=8704
  remaining activity at 3.75 µM: 99.9%

## COc1cc(OC)c(/C=C/S(=O)(=O)Cc2ccc(OC)c(NCC(=O)O)c2)c(OC)c1 [Rigosertib (sodium)]
[1]; Well no.=6400
  remaining activity at 1.25 µM: 98.5%
[2]; Well no.=6400
  remaining activity at 3.75 µM: 97.7%

## CCCCC[C@H](O)/C=C/[C@H]1[C@H](O)CC(=O)[C@@H]1C/C=C\CCCC(=O)O [Prostaglandin E2]
[1]; Well no.=1625
  remaining activity at 1.25 µM: 100%
[1]; Well no.=3092
  remaining activity at 1.25 µM: 98.6%
[1]; Well no.=4477
  remaining activity at 1.25 µM: 99.7%
[1]; Well no.=6151
  remaining activity at 1.25 µM: 106%
[1]; Well no.=8105
  remaining activity at 1.25 µM: 94.3%
[2]; Well no.=1625
  remaining activity at 3.75 µM: 103%
[2]; Well no.=3092
  remaining activity at 3.75 µM: 101%
[2]; Well no.=6151
  remaining activity at 3.75 µM: 110%
[2]; Well no.=8105
  remaining activity at 3.75 µM: 95.4%

## NS(=O)(=O)c1ccc(-n2nc(C(F)(F)F)cc2-c2ccc(Cl)cc2)cc1 [SC-236]
[1]; Well no.=5773
  remaining activity at 1.25 µM: 110%
[2]; Well no.=5773
  remaining activity at 3.75 µM: 98%

## CC(=O)NCCc1c[nH]c2ccc(O)cc12 [N-Acetyl-5-hydroxytryptamine]
[1]; Well no.=201
  remaining activity at 1.25 µM: 102%
[2]; Well no.=201
  remaining activity at 3.75 µM: 103%

## COCCCOc1cc(C[C@@H](C[C@H](N)[C@@H](O)C[C@H](C(=O)NCC(C)(C)C(N)=O)C(C)C)C(C)C)ccc1OC [Aliskiren hemifumarate]
[1]; Well no.=5148
  remaining activity at 1.25 µM: 107%
[2]; Well no.=5148
  remaining activity at 3.75 µM: 104%

## O=C(O)/C=C/c1ccc(Cn2ccnc2)cc1 [Ozagrel HCl]
[1]; Well no.=4726
  remaining activity at 1.25 µM: 108%
[2]; Well no.=4726
  remaining activity at 3.75 µM: 101%

## COc1cc(-c2oc3cc(O)ccc3c(=O)c2O)ccc1O [Geraldol]
[1]; Well no.=3512
  remaining activity at 1.25 µM: 98.4%
[2]; Well no.=3512
  remaining activity at 3.75 µM: 102%

## O=C[C@H](O)[C@@H](O)[C@H](O)CO [Xylose]
[1]; Well no.=6351
  remaining activity at 1.25 µM: 103%
[1]; Well no.=8144
  remaining activity at 1.25 µM: 99.9%
[2]; Well no.=6351
  remaining activity at 3.75 µM: 105%
[2]; Well no.=8144
  remaining activity at 3.75 µM: 96.9%

## Cn1c(O)c(-c2[nH]c3ccccc3c2N=O)c2ccc(Br)cc21 [GSK-3 Inhibitor IX, Control, MeBIO]
[1]; Well no.=2427
  remaining activity at 1.25 µM: 106%
[2]; Well no.=2427
  remaining activity at 3.75 µM: 108%

## CN[C@@H]1C[C@H]2O[C@@](C)([C@@H]1OC)n1c3ccccc3c3c4c(c5c6ccccc6n2c5c31)C(=O)N[C@H]4O [UCN-01]
[1]; Well no.=2587
  remaining activity at 1.25 µM: 95.7%
[2]; Well no.=2587
  remaining activity at 3.75 µM: 97.5%

## O=C(O)/C=C/c1ccccc1 [Cinnamic acid]
[1]; Well no.=7011
  remaining activity at 1.25 µM: 104%
[2]; Well no.=7011
  remaining activity at 3.75 µM: 105%

## CC(C)(C)C(=O)C(Oc1ccc(Cl)cc1)n1ccnc1 (stereo not drawn) [Climbazole]
[1]; Well no.=2269
  remaining activity at 1.25 µM: 98.8%
[2]; Well no.=2269
  remaining activity at 3.75 µM: 99.5%

## Nc1c2c(nc3ccccc13)CCCC2O (stereo not drawn) [Hydroxytacrine]
[1]; Well no.=1671
  remaining activity at 1.25 µM: 103%
[2]; Well no.=1671
  remaining activity at 3.75 µM: 103%

## COc1cc([C@@H]2c3cc4c(cc3[C@H](O)[C@H]3COC(=O)[C@@H]23)OCO4)cc(OC)c1OC [Picropodophyllin]
[1]; Well no.=3341
  remaining activity at 1.25 µM: 95.7%
[2]; Well no.=3341
  remaining activity at 3.75 µM: 98.4%

## c1nc2c(NC3CCCCC3)nc(Nc3ccc(N4CCOCC4)cc3)nc2[nH]1 [Reversine]
[1]; Well no.=2621
  remaining activity at 1.25 µM: 98.6%
[2]; Well no.=2621
  remaining activity at 3.75 µM: 100%

## CN1c2cc3c(cc2N=C(c2ccc(C(=O)O)cc2)c2ccccc21)C(C)(C)CCC3(C)C [4-(5,7,7,10,10-pentamethyl-7,8,9,10-tetrahydro-5H-naphtho[2,3-b][1,4]benzodiazepin-13-yl)benzoic acid]
[1]; Well no.=5556
  remaining activity at 1.25 µM: 104%
[2]; Well no.=5556
  remaining activity at 3.75 µM: 100%

## CCCCc1ccc(C(=O)O)nc1 [Fusaric acid]
[1]; Well no.=613
  remaining activity at 1.25 µM: 98.5%
[2]; Well no.=613
  remaining activity at 3.75 µM: 99.1%

## CC(C)[C@@H](CN1CC[C@@](C)(c2cccc(O)c2)[C@@H](C)C1)NC(=O)[C@H]1Cc2ccc(O)cc2CN1 [JDTic (dihydrochloride)]
[1]; Well no.=7139
  remaining activity at 1.25 µM: 99.3%
[2]; Well no.=7139
  remaining activity at 3.75 µM: 97%

## O=C1N[C@@H](Cc2cnc[nH]2)C(=O)N2CCC[C@@H]12 [Cyclo(his-pro)]
[1]; Well no.=6245
  remaining activity at 1.25 µM: 106%
[2]; Well no.=6245
  remaining activity at 3.75 µM: 105%

## CCCCN1CCC(COC(=O)c2cc(Cl)c(N)c3c2OCCO3)CC1 [SB 204070 hydrochloride]
[1]; Well no.=1170
  remaining activity at 1.25 µM: 97.3%
[2]; Well no.=1170
  remaining activity at 3.75 µM: 99.4%

## Cc1c(-c2ccccc2)oc2c(C(=O)OCCN3CCCCC3)cccc2c1=O [Flavoxate HCl]
[1]; Well no.=5084
  remaining activity at 1.25 µM: 99%
[2]; Well no.=5084
  remaining activity at 3.75 µM: 102%

## C=CCN1CCc2c(cc(O)c(O)c2Cl)C(c2ccccc2)C1 (stereo not drawn) [SKF-82958 (hydrobromide)]
[1]; Well no.=7905
  remaining activity at 1.25 µM: 105%
[2]; Well no.=7905
  remaining activity at 3.75 µM: 101%

From article PMC8286840, “Identifying SARS-CoV-2 antiviral compounds by screening for small molecule inhibitors of Nsp3 papain-like protease” (Biochemical Journal, 2021)
